{"source": "patent US5185251A", "about": "“Microbial transformation of a substituted pyridinone using actinoplanacete sp. MA 6559” (Merck & Co., Inc., priority 1991, dated 1993)", "target": "T1, recombinant HIV reverse transcriptase (HIV RTR) (Human immunodeficiency virus type 1 group M subtype B, UniProt P04585)", "T1 construct": "recombinant HIV reverse transcriptase", "assay": "Reverse Transcriptase Assay (incorporation of tritiated deoxyguanosine monophosphate into acid-precipitable cDNA)", "format": "biochemical", "settings": "for inhibition of incorporation of deoxyguanosine monophosphate by HIV reverse transcriptase (in words): at the Km values of dGTP and poly r(C).oligo d(G)12-18; for IC50: poly r(C).oligo d(G)12-18 template, dGTP at about Km, 37° C., 45 minutes, read-out: calculated IC50", "procedure": "The assay measures the incorporation of tritiated deoxyguanosine monophosphate by recombinant HIV reverse transcriptase (HIV RTR) (or other RT) into acid-precipitable cDNA at the Km values of dGTP and poly r(C).oligo d(G)12-18.\nThirty uL of a reaction mixture containing equal volumes of: 500 mM Tris.HCl (pH 8.2), 300 mM MgCl2, 1200 mM KCl, 10 mM DTT, 400 μg/mL poly r(c).oligo d(G) [prepared by dissolving 1.5 mg (25 U) poly r(C).oligo d(G) in 1.5 ml sterile distilled H2 O and diluting to 400 μg/ml], 0.1 μCi/μl [^3 H] dGTP, 160 μM dGTP, was added to 10 μl sterile distilled H2 O, 2.5 μl of potential inhibitor. Ten μL of 3.2 nM purified HIV RTR were added to start the reaction. The mixture was incubated at 37° C. for 45 minutes.\nAfter incubation was complete, the tubes were cooled in ice for 5 minutes. Ice-cold 13% TCA containing 10 mM NaPPi (200 μl) was added and the mixture incubated on ice for 30 minutes. The precipitated cDNA was removed by filtration using presoaked glass filters [TCA, NaPPi ]. The precipitate was then washed with 1N HCl, 10 mM NaPPi. The filter discs were then counted in a Packard scintillation counter.\nUnder these conditions [dGTP] and poly r(C).oligo d(G)12-18 each are approximately equal to the appropriate Km value. Approximately 5-6,000 cpm of [^3 H] GMP are incorporated into acid-precipitable material. The RT reaction is concentration- and time-dependent.", "data": [{"compound": "Cc1[nH]c(=O)c(CCc2nc3ccccc3o2)cc1C(C)O", "note": "(racemic) [Compound (I), (+/-)-3-[2-(benzoxazol-2-yl)ethyl]-5-(1-hydroxyethyl)-6-methyl-2(1H)-pyridinone]", "values": [{"measurement": "inhibition of incorporation of deoxyguanosine monophosphate by HIV reverse transcriptase (in words)", "value": "inhibit this incorporation"}, {"measurement": "IC50", "value": "~18.7", "unit": "µM"}]}, {"compound": "CCc1cc(CCc2nc3ccccc3o2)c(=O)[nH]c1CO", "note": "[Compound (II), 3-[2-(benzoxazol-2-yl)ethyl]-5-ethyl-6-hydroxymethyl-2(1H)-pyridinone]", "values": [{"measurement": "inhibition of incorporation of deoxyguanosine monophosphate by HIV reverse transcriptase (in words)", "value": "inhibit this incorporation"}, {"measurement": "IC50", "value": "~0.044", "unit": "µM"}]}]}
